Experimental data reported in US20160250213A1, “FORMULATIONS OF AZAINDOLE COMPOUNDS” (priority 2013, published 2016).
Values joined by “and” are separate entries in the source; they are usually repeats but may differ in a detail not shown here. Equal values may be shown once. Read-outs that look alike come from different tables or passages of the source. Marks after values point to notes of the source that are not given here.

Legend:
A/Denver/1/57 (H1N1) = assay: microbe, parasite or virus in culture; assay type: cell-based; settings: Influenza A virus, MDCK, read-out: Cell Protection Assay EC50 ± SD
A/Georgia/17/2006 (H1N1) = assay: microbe, parasite or virus in culture; assay type: cell-based; settings: Influenza A virus, MDCK, read-out: Cell Protection Assay EC50 ± SD
[1] = tested on: Influenza A/Vietnam/1203/2004 (H5N1) virus; parameters: species or system BALB/c mice; settings: mouse, in vivo
[2] = tested on: A/Chelyabinsk/1/2006 (H1N1); assay: microbe, parasite or virus in culture; assay type: cell-based; settings: Influenza A virus, MDCK, read-out: Cell Protection Assay EC50 ± SD
A/New Jersey/8/76 (H1N1) = assay: microbe, parasite or virus in culture; assay type: cell-based; settings: Influenza A virus, H1N1, MDCK, read-out: Cell Protection Assay EC50 ± SD
A/Victoria/3/75 (H3N2) = assay: microbe, parasite or virus in culture; assay type: cell-based; settings: Influenza A virus, MDCK, read-out: Cell Protection Assay EC50 ± SD
[3] = tested on: influenza A/Wisconsin/67/2005 (H3N2) challenge strain virus; assay type: in vivo, humans (healthy volunteers)
A/Mal/302/54 (H1N1) = assay: microbe, parasite or virus in culture; assay type: cell-based; settings: Influenza A virus, MDCK, read-out: Cell Protection Assay EC50 ± SD
[4] = single doses up to 1600 mg and multiple doses up to 800 mg daily for 10 days
[5] = tested on: A/Swine/Iowa/15/30 (H1N1); assay: microbe, parasite or virus in culture; assay type: cell-based; settings: Influenza A virus, H1N1, MDCK, in Sus scrofa, read-out: Cell Protection Assay EC50 ± SD
B/Russia/69 = assay: microbe, parasite or virus in culture; assay type: cell-based; settings: Influenza B virus, MDCK, read-out: Cell Protection Assay EC50 ± SD
influenza virus = tested on: influenza virus; parameters: species or system mice; settings: mouse, in vivo
[6] = tested on: Influenza A/California/04/2009 (pndH1N1) virus; assay type: in vivo, BALB/c mice
influenza A = tested on: influenza A; parameters: species or system mice; settings: mouse, in vivo
B/Lee/40 = assay: microbe, parasite or virus in culture; assay type: cell-based; settings: Influenza B virus, MDCK, read-out: Cell Protection Assay EC50 ± SD
[7] = tested on: A/Virginia/ATCC2/2009 (H1N1); assay: microbe, parasite or virus in culture; assay type: cell-based; settings: Influenza A virus, MDCK, read-out: Cell Protection Assay EC50 ± SD
[8] = tested on: influenza A/PR/8/34 (5×10^3 TCID50); parameters: species or system mice; settings: mouse, in vivo
[9] = tested on: influenza A/Wisconsin/67/2005 (H3N2) challenge strain virus; assay type: in vivo, humans (healthy volunteers); settings: for Viral Shedding by Tissue Culture, AUC, median: Days 1-7
A/Hawaii/2/2006 (H3N2) = assay: microbe, parasite or virus in culture; assay type: cell-based; settings: Influenza A virus, MDCK, read-out: Cell Protection Assay EC50 ± SD
influenza A virus = assay type: in vivo, mice; settings: mouse, in vivo
[10] = tested on: influenza A/Wisconsin/67/2005 (H3N2) challenge strain virus; assay type: in vivo, humans (healthy volunteers); remark: listed apart in the source
A/Aichi/2/68 (H3N2) = assay: microbe, parasite or virus in culture; assay type: cell-based; settings: Influenza A virus, MDCK, read-out: Cell Protection Assay EC50 ± SD
[11] = 900 mg Day 1, 600 mg Days 2-5, […]
[12] = 1200 mg Day 1, 600 mg Days 2-5, […]
[13] = pooled Compound (1) dose groups, […]
[14] = 1 mg/kg p.o. twice a day for 10 days starting 2 hours prior to virus exposure
[15] = 3 mg/kg p.o. twice a day for 10 days starting 2 hours prior to virus exposure
[16] = 10 mg/kg p.o. twice a day for 10 days starting 2 hours prior to virus exposure
[17] = 100 mg QD 5 days, FA set N = 12
[18] = 400 mg QD 5 days, FA set N = 12
[19] = 900 mg Day 1, 600 mg Days 2-5, FA set N = 14
[20] = 1200 mg Day 1, 600 mg Days 2-5, FA set N = 14
[21] = pooled Compound (1) dose groups, FA set N = 52

## O=C(O)[C@H]1C2CCC(CC2)C1Nc1nc(-c2c[nH]c3ncc(F)cc23)ncc1F (stereo partly shown) [Compound (1)]
A/Denver/1/57 (H1N1)
  EC50: 0.42 ± 0.19 nM
A/Georgia/17/2006 (H1N1)
  EC50: 0.13 ± 0.048 nM
[1]
  MDD ± SD (mean day of death of mice that died on or before day 21): >21
  Mean Lung Parameters (Day 6): Virus Titer: 3.75 ± 0.94 Log 10 CCID50/g
  Survivors/Total: 10/10
[2]
  EC50: 0.7 ± 0.49 nM
A/New Jersey/8/76 (H1N1)
  EC50: 0.2 ± 0.096 nM
A/Victoria/3/75 (H3N2)
  EC50: 1.3 ± 0.63 nM
[3]; [11]
  Serology, Sero-conversion (%): (68%)
  Serology, Sero-conversion, n/N: 13/19
[3]; [12]
  Serology, Sero-conversion (%): (67%)
  Serology, Sero-conversion, n/N: 12/18
[3]; in vivo
  Serology, Sero-conversion, n/N: 11/16 and 9/19
[3]; [13]
  Serology, Sero-conversion (%): (63%)
  Serology, Sero-conversion, n/N: 45/72
A/Mal/302/54 (H1N1)
  EC50: 0.57 ± 0.055 nM
[4]
  liver function abnormalities, serum phosphate decreases: Neither liver function abnormalities nor serum phosphate decreases were observed
[5]
  EC50: 0.65 ± 0.082 nM
B/Russia/69
  EC50: > 10 nM
Influenza virus
  half maximal reduction in lung titers: 2-3 log
[6]; [14]
  Mean Lung Parameters (Day 6): Score (hemorrhage, 0 to 4): 0.6
  Mean Lung Parameters (Day 6): Virus Titer: 5.5 Log10 CCID50/g
  Mean Lung Parameters (Day 6): Weight: 246 mg
[6]; [15]
  Mean Lung Parameters (Day 6): Score (hemorrhage, 0 to 4): 0.0
  Mean Lung Parameters (Day 6): Virus Titer: 3.1 Log10 CCID50/g
  Mean Lung Parameters (Day 6): Weight: 123 mg
[6]; [16]
  Mean Lung Parameters (Day 6): Score (hemorrhage, 0 to 4): 0.2
  Mean Lung Parameters (Day 6): Virus Titer: <2.6^d*** Log10 CCID50/g
  Mean Lung Parameters (Day 6): Weight: 132 mg
Influenza A
  Log10 Reduction vs. Vehicle: −1.08 Log10
Influenza A; 3 mg/kg
  Log10 Reduction vs. Vehicle: −1.04 Log10
  Lung Viral Titer: 5.24 *** Log10 TCID50
Influenza A; 10 mg/kg
  Lung Viral Titer: 5.20*** Log10 TCID50
Influenza A; 30 mg/kg
  Lung Viral Titer: 3.95 Log10 TCID50 and 4.53*** Log10 TCID50
B/Lee/40
  EC50: > 10 nM
[7]
  EC50: 1.9 ± 3 nM
[8]; 0.1 mg/kg
  Survival Rate: 12.5
[8]; 0.3 mg/kg
  Survival Rate: 44.4
[8]; 1 mg/kg
  Survival Rate: 100
[9]; [17]
  Viral Shedding by Tissue Culture, Duration, median: 0.96 days
  Viral Shedding by Tissue Culture, Peak, mean: 2.09 log10 TCID50/mL
  Viral Shedding by Tissue Culture, AUC, median: 1.25 log10 TCID50 mL*Day
[9]; [18]
  Viral Shedding by Tissue Culture, Duration, median: 1.60 days
  Viral Shedding by Tissue Culture, Peak, mean: 1.73 log10 TCID50/mL
  Viral Shedding by Tissue Culture, AUC, median: 0.70 log10 TCID50 mL*Day
[9]; [19]
  Viral Shedding by Tissue Culture, Duration, median: 2.71 days
  Viral Shedding by Tissue Culture, Peak, mean: 2.68 log10 TCID50/mL
  Viral Shedding by Tissue Culture, AUC, median: 3.20 log10 TCID50 mL*Day
[9]; [20]
  Viral Shedding by Tissue Culture, Duration, median: 0.00 days
  Viral Shedding by Tissue Culture, Peak, mean: 1.00 log10 TCID50/mL
  Viral Shedding by Tissue Culture, AUC, median: 0.35 log10 TCID50 mL*Day
[9]; [21]
  Viral Shedding by Tissue Culture, Duration, median: 0.71 days
  Viral Shedding by Tissue Culture, Peak, mean: 1.87 log10 TCID50/mL
  Viral Shedding by Tissue Culture, AUC, median: 0.65 log10 TCID50 mL*Day
A/Hawaii/2/2006 (H3N2)
  EC50: 1.4 ± 0.91 nM
Influenza A virus
  survival: 2/8
[10]; [17]
  Viral Shedding by qRT-PCR, AUC, median: 6.05 log10 copies/mL*Day
  Viral Shedding by qRT-PCR, Duration, median: 0.96 days
[10]; [18]
  Viral Shedding by qRT-PCR, AUC, median: 4.90 log10 copies/mL*Day
  Viral Shedding by qRT-PCR, Duration, median: 1.36 days
[10]; [19]
  Viral Shedding by qRT-PCR, AUC, median: 10.65 log10 copies/mL*Day
  Viral Shedding by qRT-PCR, Duration, median: 2.39 days
[10]; [20]
  Viral Shedding by qRT-PCR, AUC, median: 0.45 log10 copies/mL*Day
  Viral Shedding by qRT-PCR, Duration, median: 0.00 days
[10]; [21]
  Viral Shedding by qRT-PCR, AUC, median: 3.45 log10 copies/mL*Day
  Viral Shedding by qRT-PCR, Duration, median: 0.71 days
A/Aichi/2/68 (H3N2)
  EC50: 1.4 ± 1.1 nM
